Read-outs that look alike come from different tables or passages of the source.
Assay: Plasma pharmacokinetics, QD and BID cohorts (non-compartmental)
Type: in vivo, human
Conditions: for Cmax / Tmax / AUC / AUC(0-t) / concentration at 21 days: human, plasma, oral; for concentration at 21 days: read-out: Cmin, range across cohorts
Description: PK parameters were calculated by standard non-compartmental methods for SLC-391. Due to the long half-life of SLC-391 compared to the dosing interval, it was not possible to calculate a number of PK parameters, including plasma half-life and rate of elimination. Accumulation was assessed from the mean accumulation ratio factor (AR factor) calculated as the repeated dose (C1D21) mean value/single dose (C1D1) mean value for the PK parameters Cmax, AUC0–12, and AUC0–last for each dose group.
During QD dosing, blood samples for determination of SLC-391 plasma concentrations were collected predose and at 0.5, 1, 2, 3, 4, 6, 8, and 24 h after SLC-391 administration on cycle 1 day 1 (C1D1) and cycle 1 day 21 (C1D21). During BID dosing, blood samples were collected predose and at 1, 2, 3, 4, 6, 8, and 12 h after the first daily dose (before the second daily dose). Where possible, further samples were then collected at 13, 14, 22, and 24 h after the initial dose (predose C1D2). Blood samples were also collected on C1D21 (steady state) predose and at 1, 2, 3, 4, 6, 8, and 12 h after the first daily dose (before the second daily dose). Where possible, further samples were then collected at 13, 14, 22, and 24 h after the initial C1D21 dose (predose C2D1). An additional blood sample was also taken, where possible, at the end of treatment (EOT) visit.
After collection, blood samples were centrifuged, and plasma was separated and stored at −80 °C. Plasma concentrations of SLC-391 were measured by a validated analytical method involving liquid–liquid extraction followed by high-performance liquid chromatography (HPLC)–mass/mass spectroscopy assay using a Water Quattro Premier tandem quadrupole mass spectroscopy with Waters MassLynx data acquisition and processing software. Plasma analysis was carried out by Microconstants (San Diego, CA, USA) in compliance with the US FDA GLP regulations. The calibration range of the assay was from 0.100 to 100 ng/mL. Quality control samples prepared at 4 different analyte concentrations were analysed with each batch of samples against a separately prepared calibration standard. PK parameters were collected following single (day 1) and repeat dose (day 21) administration. PK parameters were summarised with appropriate descriptive statistics where possible (e.g., mean, geometric mean, median, maximum, minimum, and coefficient of variation). Descriptive PK parameters were determined by standard non-compartmental methods based on the concentration–time data of each subject. The nominal time was used for descriptive statistics calculations, and the actual sample collection times were used in PK analyses. PK analyses were performed using validated Phoenix WinNonlin Professional 8.3 (Certara, L.P., St. Louis, MO, USA).

## Nc1ncc(-c2cnn(C3CCNCC3)c2)cc1-c1nnc(CC2CC2)o1 [SLC-391, 3-(5-[cyclopropylmethyl]-1,3,4-oxadiazol-2-yl)-5-(1-[piperidin-4-yl]-1H-pyrazol-4-yl)-pyridin-2-amine]
110 mg, 110 mg BID, C1D1, median, n=3, plasma, read-out: Cmax
  Cmax: 93.1 ng/mL
110 mg, 110 mg BID, C1D1, median, n=3, plasma, read-out: Tmax
  Tmax: 3 h
110 mg, 110 mg BID, C1D21, mean, n=3, plasma, read-out: AUC0–12
  AUC: 2260 ng·h/mL
110 mg, 110 mg BID, C1D21, mean, n=3, plasma, read-out: AUC0–last
  AUC(0-t): 4280 ng·h/mL
110 mg, 110 mg BID, C1D21, mean, n=3, plasma, read-out: Cmax
  Cmax: 249 ng/mL
110 mg, 110 mg BID, C1D21, mean, n=3, plasma, read-out: Tmax
  Tmax: 2.4 h
110 mg, 110 mg BID, C1D21, median, n=3, plasma, read-out: AUC0–12
  AUC: 1390 ng·h/mL
110 mg, 110 mg BID, C1D21, median, n=3, plasma, read-out: AUC0–last
  AUC(0-t): 2560 ng·h/mL
110 mg, 110 mg BID, C1D21, median, n=3, plasma, read-out: Cmax
  Cmax: 187 ng/mL
110 mg, 110 mg BID, C1D21, median, n=3, plasma, read-out: Tmax
  Tmax: 2.1 h
125 mg, QD, C1D1, read-out: AUC0–12, Mean
  AUC: 672 ng·h/mL
125 mg, QD, C1D1, read-out: AUC0–12, Median
  AUC: 877 ng·h/mL
125 mg, QD, C1D1, read-out: AUC0–last, Mean
  AUC(0-t): 1040 ng·h/mL
125 mg, QD, C1D1, read-out: AUC0–last, Median
  AUC(0-t): 1280 ng·h/mL
125 mg, QD, C1D1, read-out: Cmax, Mean
  Cmax: 103 ng/mL
125 mg, QD, C1D1, read-out: Cmax, Median
  Cmax: 123 ng/mL
125 mg, QD, C1D1, read-out: Tmax, Mean
  Tmax: 2 h
125 mg, QD, C1D1, read-out: Tmax, Median
  Tmax: 2.1 h
125 mg, QD, C1D21, read-out: AUC0–12, Mean
  AUC: 1120 ng·h/mL
125 mg, QD, C1D21, read-out: AUC0–12, Median
  AUC: 1380 ng·h/mL
125 mg, QD, C1D21, read-out: AUC0–last, Mean
  AUC(0-t): 1840 ng·h/mL
125 mg, QD, C1D21, read-out: AUC0–last, Median
  AUC(0-t): 2340 ng·h/mL
125 mg, QD, C1D21, read-out: Cmax, Mean
  Cmax: 147 ng/mL
125 mg, QD, C1D21, read-out: Cmax, Median
  Cmax: 188 ng/mL
125 mg, QD, C1D21, read-out: Tmax, Mean
  Tmax: 2 h
125 mg, QD, C1D21, read-out: Tmax, Median
  Tmax: 2 h
150 mg, 150 mg BID, C1D1, mean, n=5, plasma, read-out: AUC0–12
  AUC: 1050 ng·h/mL
150 mg, 150 mg BID, C1D1, mean, n=6, plasma, read-out: AUC0–last
  AUC(0-t): 2330 ng·h/mL
150 mg, 150 mg BID, C1D1, mean, n=6, plasma, read-out: Cmax
  Cmax: 236 ng/mL
150 mg, 150 mg BID, C1D1, mean, n=6, plasma, read-out: Tmax
  Tmax: 9 h
150 mg, 150 mg BID, C1D1, median, n=5, plasma, read-out: AUC0–12
  AUC: 1070 ng·h/mL
150 mg, 150 mg BID, C1D1, median, n=6, plasma, read-out: AUC0–last
  AUC(0-t): 1680 ng·h/mL
150 mg, 150 mg BID, C1D1, median, n=6, plasma, read-out: Cmax
  Cmax: 208 ng/mL
150 mg, 150 mg BID, C1D1, median, n=6, plasma, read-out: Tmax
  Tmax: 2 h
150 mg, 150 mg BID, C1D21, mean, n=6, plasma, read-out: AUC0–12
  AUC: 4620 ng·h/mL
150 mg, 150 mg BID, C1D21, mean, n=6, plasma, read-out: AUC0–last
  AUC(0-t): 9080 ng·h/mL
150 mg, 150 mg BID, C1D21, mean, n=6, plasma, read-out: Cmax
  Cmax: 527 ng/mL
150 mg, 150 mg BID, C1D21, mean, n=6, plasma, read-out: Tmax
  Tmax: 3.5 h
150 mg, 150 mg BID, C1D21, median, n=6, plasma, read-out: AUC0–12
  AUC: 4860 ng·h/mL
150 mg, 150 mg BID, C1D21, median, n=6, plasma, read-out: AUC0–last
  AUC(0-t): 10000 ng·h/mL
150 mg, 150 mg BID, C1D21, median, n=6, plasma, read-out: Cmax
  Cmax: 549 ng/mL
150 mg, 150 mg BID, C1D21, median, n=6, plasma, read-out: Tmax
  Tmax: 2.9 h
150 mg, QD, C1D1, read-out: AUC0–12, Mean
  AUC: 946 ng·h/mL
150 mg, QD, C1D1, read-out: AUC0–12, Median
  AUC: 892 ng·h/mL
150 mg, QD, C1D1, read-out: AUC0–last, Mean
  AUC(0-t): 1610 ng·h/mL
150 mg, QD, C1D1, read-out: AUC0–last, Median
  AUC(0-t): 1460 ng·h/mL
150 mg, QD, C1D1, read-out: Cmax, Mean
  Cmax: 156 ng/mL
150 mg, QD, C1D1, read-out: Cmax, Median
  Cmax: 126 ng/mL
150 mg, QD, C1D1, read-out: Tmax, Mean
  Tmax: 5.5 h
150 mg, QD, C1D1, read-out: Tmax, Median
  Tmax: 2.1 h
150 mg, QD, C1D21, read-out: AUC0–12, Mean
  AUC: 2140 ng·h/mL
150 mg, QD, C1D21, read-out: AUC0–12, Median
  AUC: 2080 ng·h/mL
150 mg, QD, C1D21, read-out: AUC0–last, Mean
  AUC(0-t): 3620 ng·h/mL
150 mg, QD, C1D21, read-out: AUC0–last, Median
  AUC(0-t): 3510 ng·h/mL
150 mg, QD, C1D21, read-out: Cmax, Mean
  Cmax: 254 ng/mL
150 mg, QD, C1D21, read-out: Cmax, Median
  Cmax: 269 ng/mL
150 mg, QD, C1D21, read-out: Tmax, Mean
  Tmax: 2.6 h
150 mg, QD, C1D21, read-out: Tmax, Median
  Tmax: 2 h
175 mg, QD, C1D1, n 1, read-out: AUC0–12, Mean
  AUC: 1500 ng·h/mL
175 mg, QD, C1D1, n 1, read-out: AUC0–12, Median
  AUC: 1500 ng·h/mL
175 mg, QD, C1D1, read-out: AUC0–last, Mean
  AUC(0-t): 1580 ng·h/mL
175 mg, QD, C1D1, read-out: AUC0–last, Median
  AUC(0-t): 1580 ng·h/mL
175 mg, QD, C1D1, read-out: Cmax, Mean
  Cmax: 357 ng/mL
175 mg, QD, C1D1, read-out: Cmax, Median
  Cmax: 357 ng/mL
175 mg, QD, C1D1, read-out: Tmax, Mean
  Tmax: 2 h
175 mg, QD, C1D1, read-out: Tmax, Median
  Tmax: 2 h
200 mg, 200 mg BID, C1D1, mean, n=3, plasma, read-out: AUC0–12
  AUC: 985 ng·h/mL
200 mg, 200 mg BID, C1D1, mean, n=3, plasma, read-out: AUC0–last
  AUC(0-t): 2050 ng·h/mL
200 mg, 200 mg BID, C1D1, mean, n=3, plasma, read-out: Cmax
  Cmax: 174 ng/mL
200 mg, 200 mg BID, C1D1, mean, n=3, plasma, read-out: Tmax
  Tmax: 9.7 h
200 mg, 200 mg BID, C1D1, median, n=3, plasma, read-out: AUC0–12
  AUC: 1130 ng·h/mL
200 mg, 200 mg BID, C1D1, median, n=3, plasma, read-out: AUC0–last
  AUC(0-t): 2170 ng·h/mL
200 mg, 200 mg BID, C1D1, median, n=3, plasma, read-out: Cmax
  Cmax: 178 ng/mL
200 mg, 200 mg BID, C1D1, median, n=3, plasma, read-out: Tmax
  Tmax: 3.1 h
200 mg, 200 mg BID, C1D21, mean, n=2, plasma, read-out: AUC0–12
  AUC: 8550 ng·h/mL
200 mg, 200 mg BID, C1D21, mean, n=2, plasma, read-out: AUC0–last
  AUC(0-t): 16400 ng·h/mL
200 mg, 200 mg BID, C1D21, mean, n=2, plasma, read-out: Cmax
  Cmax: 874 ng/mL
200 mg, 200 mg BID, C1D21, mean, n=2, plasma, read-out: Tmax
  Tmax: 2.4 h
200 mg, 200 mg BID, C1D21, median, n=2, plasma, read-out: AUC0–12
  AUC: 8550 ng·h/mL
200 mg, 200 mg BID, C1D21, median, n=2, plasma, read-out: AUC0–last
  AUC(0-t): 16400 ng·h/mL
200 mg, 200 mg BID, C1D21, median, n=2, plasma, read-out: Cmax
  Cmax: 874 ng/mL
200 mg, 200 mg BID, C1D21, median, n=2, plasma, read-out: Tmax
  Tmax: 2.4 h
BID, 75 mg to 200 mg, C1D1, read-out: mean AUC0–last, range across cohorts
  AUC(0-t): 1170 to 2330 ng·h/mL
BID, 75 mg to 200 mg, C1D1, read-out: mean Cmax, range across cohorts
  Cmax: 95.2 to 236 ng/mL
BID, 75 mg to 200 mg, C1D1, read-out: median Tmax, range across cohorts
  Tmax: 2 to 3.1 h
BID, 75 mg to 200 mg, C1D21, read-out: mean AUC0–last, range across cohorts
  AUC(0-t): 4280 to 16400 ng·h/mL
BID, 75 mg to 200 mg, C1D21, read-out: mean Cmax, range across cohorts
  Cmax: 249 to 874 ng/mL
BID, 75 mg to 200 mg, C1D21, read-out: median Tmax, range across cohorts
  Tmax: 1.9 to 2.9 h
QD, 25 mg to 150 mg, C1D21, read-out: mean AUC0–last, range across cohorts
  AUC(0-t): 461 to 3620 ng·h/mL
QD, 25 mg to 150 mg, C1D21, read-out: mean Cmax, range across cohorts
  Cmax: 41.9 to 436 ng/mL
QD, 25 mg to 150 mg, C1D21, read-out: median Tmax, range across cohorts
  Tmax: 1.5 to 2.1 h
QD, 25 mg to 175 mg, C1D1, read-out: mean AUC0–last, range across cohorts
  AUC(0-t): 270 to 1580 ng·h/mL
QD, 25 mg to 175 mg, C1D1, read-out: mean Cmax, range across cohorts
  Cmax: 32.5 to 357 ng/mL
QD, 25 mg to 175 mg, C1D1, read-out: median Tmax, range across cohorts
  Tmax: 0.9 to 2.1 h
After 21 days of BID dosing
  concentration at 21 days: 146 to 472 ng/mL
After 21 days of QD dosing
  concentration at 21 days: 10.3 to 152 ng/mL
overall, as stated in the abstract, read-out: median Tmax
  Tmax: 2 h
Multiple doses, QD and BID
  steady state of plasma concentrations: appeared to reach a steady state by day 21
